ChEMBL document CHEMBL4831557, “Parthenolide Derivatives as PKM2 Activators Showing Potential in Colorectal Cancer” (J Med Chem, 2021)

How the values were obtained:
HT-29 = assay: Cytotoxicity against human HT-29 cells assessed as reduction in cell viability incubated for 48 hrs by MTT assay; assay type: functional, cell-based; conditions: HT-29, 48 h
SW480 = assay: Cytotoxicity against human SW480 cells assessed as reduction in cell viability incubated for 48 hrs by MTT assay; assay type: functional, cell-based; conditions: SW480, 48 h
HCT-116 = assay: Cytotoxicity against human HCT-116 cells assessed as reduction in cell viability incubated for 48 hrs by MTT assay; assay type: functional, cell-based; conditions: HCT-116, 48 h
U2OS = assay: Cytotoxicity against human U2OS cells assessed as reduction in cell viability incubated for 48 hrs by MTT assay; assay type: functional, cell-based
HepG2 = assay: Cytotoxicity against human HepG2 cells assessed as reduction in cell viability incubated for 48 hrs by MTT assay; assay type: functional, cell-based; conditions: HepG2, 48 h
MDA-MB-231 = assay: Cytotoxicity against human MDA-MB-231 cells assessed as reduction in cell viability incubated for 48 hrs by MTT assay; assay type: functional, cell-based; conditions: MDA-MB-231, 48 h
A549 = assay: cells; conditions: Homo sapiens, A549, 48 h

| Compound | IC50 (A549) [µM] | IC50 (HT-29) [µM] | IC50 (SW480) [µM] | IC50 (HCT-116) [µM] | IC50 (U2OS) [µM] | IC50 (HepG2) [µM] | IC50 (MDA-MB-231) [µM] |
| --- | --- | --- | --- | --- | --- | --- | --- |
| C/C1=C\CC[C@@]2(C)O[C@H]2[C@H]2OC(=O)C(CN3CCCN(C(=O)c4ccc5ccccc5n4)CC3)[C@@H]2CC1 (some centres not stated) | 27.3 | 39 | 6.39 | 50 | 11.1 | 59.6 | 71.7 |
| C=C1C(=O)O[C@H]2[C@H]1CC/C(COC(=O)CCc1n[nH]c(=O)c3ccccc13)=C/CC[C@@]1(C)O[C@@H]21 | 13.5 | 4.11 | 1.45 | 4.51 | 6.03 | 7.22 | 7.92 |
| C=C1C(=O)O[C@H]2[C@H]1CC/C(C(=O)CN1CCCN(C(=O)c3ccc4ccccc4n3)CC1)=C/CC[C@@]1(C)O[C@@H]21 | 9.68 | 4.31 | 3.13 | 4.32 | 10.6 | 5 | 7.44 |
| C=C1C(=O)O[C@H]2[C@H]1CC/C(COC(=O)CCc1nc3ccccc3[nH]c1=O)=C/CC[C@@]1(C)O[C@@H]21 | 8.12 | 5.66 | 1.74 | 6.13 | 6.99 | 14.2 | 7.56 |
| C=C1C(=O)O[C@H]2[C@H]1CC[C@]1(C)O[C@@H]1CC[C@@]1(C)O[C@@H]21 | 28.6 | 11.4 | 4.3 | 13.4 | 13 | 23.5 | 15.2 |
| C/C1=C\CC[C@@]2(C)O[C@H]2[C@H]2OC(=O)/C(=C\c3ccc4ncncc4c3)[C@@H]2CC1 | 40.2 | > 100 | 51.6 | 87.7 | 72 | > 100 | > 100 |
| C/C1=C\CC[C@@]2(C)O[C@H]2[C@H]2OC(=O)/C(=C\c3ccc4nccnc4c3)[C@@H]2CC1 | 9.18 | 358 | 3.51 | 4.38 | 3 | 13.8 | 7.59 |
| C=C1C(=O)O[C@H]2[C@H]1CC/C(COC(=O)CCn1cnc3ccccc3c1=O)=C/CC[C@@]1(C)O[C@@H]21 | 8.63 | 5.21 | 3.23 | 5.71 | 7.76 | 17.9 | 8.37 |

The next compounds have a lower IC50 (A549) than those just listed; values first:

| IC50 (A549) [µM] | Compound | IC50 (HT-29) [µM] | IC50 (SW480) [µM] | IC50 (HCT-116) [µM] | IC50 (U2OS) [µM] | IC50 (HepG2) [µM] | IC50 (MDA-MB-231) [µM] |
| --- | --- | --- | --- | --- | --- | --- | --- |
| 7.49 | C=C1C(=O)O[C@H]2[C@H]1CC/C(CO)=C\CC[C@@]1(C)O[C@@H]21 | 6.95 | 5.87 | 7.5 | 10.7 | 12 | 6.01 |
| 5.79 | C=C1C(=O)O[C@H]2[C@H]1CC/C(COC(=O)Cc1n[nH]c(=O)c3ccccc13)=C/CC[C@@]1(C)O[C@@H]21 | 2.56 | 2.28 | 2.87 | 8.53 | 8.44 | 5.49 |
| 5.12 | C=C1C(=O)O[C@H]2[C@H]1CC/C(COC(=O)c1ccc3nc(O)ccc3c1)=C/CC[C@@]1(C)O[C@@H]21 | 1.72 | 0.73 | 2.25 | 7.62 | 10.6 | 5.1 |
| 2.76 | C=C1C(=O)O[C@H]2[C@H]1CC/C(COC(=O)Cc1ccc3ncccc3c1)=C/CC[C@@]1(C)O[C@@H]21 | 1.4 | 1.8 | 1.79 | 6.62 | 5.9 | 4.13 |
| 2.75 | CO[C@@]12[C@H](COC(N)=O)C3=C(C(=O)C(C)=C(N)C3=O)N1C[C@@H]1N[C@@H]12 [MITOMYCIN] | 0.44 | 0.79 | 0.55 | 8.45 | 2.27 | 2.89 |
| 2.45 | C=C1C(=O)O[C@H]2[C@H]1CC/C(COC(=O)c1cnc3ccccc3c1)=C/CC[C@@]1(C)O[C@@H]21 | 2.43 | 0.33 | 2.7 | 2.58 | 9.53 | 2.27 |
| 2.45 | C=C1C(=O)O[C@H]2[C@H]1CC/C(COC(=O)c1ccc3cnccc3c1)=C/CC[C@@]1(C)O[C@@H]21 | 2.43 | 1.33 | 2.7 | 2.58 | 9.52 | 2.27 |
| 0.92 | C=C1C(=O)O[C@H]2[C@H]1CC/C(COC(=O)c1ccc3ncc(Br)cc3c1)=C/CC[C@@]1(C)O[C@@H]21 | 0.79 | 0.38 | 1.21 | 2.51 | 4.5 | 1.89 |
